Measurements published in patent publication US20250059174A1, “Pharmaceutical Compounds and Compositions as C-Kit Kinase Inhibitors” (Enanta Pharmaceuticals, Inc., priority 2023, published 2025).

Each compound was assayed against Recombinant human c-KIT kinase (Homo sapiens (Human), UniProt P10721) (assay: c-KIT kinase chemiluminescence assay (ADP-Glo)). Settings: ATP 50 μM.
Chain of Recombinant human c-KIT kinase (P10721 26-976): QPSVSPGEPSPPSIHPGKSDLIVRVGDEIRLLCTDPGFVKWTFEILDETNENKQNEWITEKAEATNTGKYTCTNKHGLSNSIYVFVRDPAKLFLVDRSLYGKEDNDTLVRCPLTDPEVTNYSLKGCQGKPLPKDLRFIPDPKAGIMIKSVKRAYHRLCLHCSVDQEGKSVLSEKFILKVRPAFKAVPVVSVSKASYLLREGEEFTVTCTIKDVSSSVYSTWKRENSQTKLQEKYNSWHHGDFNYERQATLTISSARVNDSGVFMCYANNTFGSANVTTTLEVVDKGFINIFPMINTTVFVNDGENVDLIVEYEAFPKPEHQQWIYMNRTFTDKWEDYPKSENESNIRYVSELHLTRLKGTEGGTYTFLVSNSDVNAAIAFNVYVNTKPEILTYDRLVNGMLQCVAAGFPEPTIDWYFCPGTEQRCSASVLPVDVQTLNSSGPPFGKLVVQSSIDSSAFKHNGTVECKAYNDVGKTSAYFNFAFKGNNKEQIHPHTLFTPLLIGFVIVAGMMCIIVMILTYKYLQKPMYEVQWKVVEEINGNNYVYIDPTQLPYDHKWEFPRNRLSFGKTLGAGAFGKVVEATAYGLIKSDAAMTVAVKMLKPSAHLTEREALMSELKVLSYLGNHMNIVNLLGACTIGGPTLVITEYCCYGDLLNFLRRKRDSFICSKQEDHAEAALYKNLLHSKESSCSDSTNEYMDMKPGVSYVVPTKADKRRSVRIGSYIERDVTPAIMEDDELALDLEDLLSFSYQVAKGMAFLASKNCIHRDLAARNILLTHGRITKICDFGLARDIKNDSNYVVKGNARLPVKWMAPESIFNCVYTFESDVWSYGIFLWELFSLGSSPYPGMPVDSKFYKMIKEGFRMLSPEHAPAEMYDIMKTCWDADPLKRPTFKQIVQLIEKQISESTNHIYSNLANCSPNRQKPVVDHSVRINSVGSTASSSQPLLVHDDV
Type: biochemical
Description: The c-KIT Kinase Enzyme System (V4498) and ADP-Glo™ Kinase Assay kit (V6930) were purchased from Promega (Madison, WI). DMSO (D2650) was purchased from Sigma-Aldrich (Burlington, MA).
Kinase Reaction: The kinase assay was based on the recommended protocol by c-KIT Kinase Enzyme System from Promega. Recombinant human c-KIT kinase in 3 μL of assay buffer (40 mM Tris pH 7.5, 20 mM MgCl2, 0.1 mg/mL BSA and 50 μM DTT) was added to the test or high control wells and 3 μL of assay buffer was added to the low control wells. The microplate was centrifuged at 800 rotations per minute (rpm) for 60 s and incubated at room temperature (RT) for 30 min. Next, 2 μL of buffered ATP and polyEY substrate solution was added to all wells. The microplate was centrifuged at 800 rpm for 60 s and incubated at RT for 2 h.
ADP detection with ADP-Glo™ Kinase Assay: After the kinase reaction incubation, 5 μL of ADP-Glo™ reagent was added to all wells. The microplate was centrifuged at 800 rpm for 60 s and incubated at RT for 40 min. Ten microliter (10 μL) of Kinase Detection Reagent (Luciferin-Luciferase system) was then added to all wells. The microplate was centrifuged at 800 rpm for 60 s and incubated at RT for 60 min. Kinase activity was measured as increase in luminescence at RT in an Envision plate reader equipped with 560 nm filters and operating in endpoint mode. Data Analysis: Endpoint chemiluminescence from high and low control wells were used to calculate normalized c-KIT activity at various concentrations of test compounds. The normalized activities were fitted to inhibitor-versus-normalized response fit in GraphPad Prism 7 to determine half-maximal inhibitory concentration (IC50) and hill coefficient values (H).
Where I is the inhibitor concentration and H is the Hill coefficient.
Work on Cc1ccc(-c2noc([C@H]3C[C@@H]3F)n2)cc1NC(=O)c1cnc2cnccn12 [Example 1] yielded an IC50 of 0.1 to 1 µM. With Cc1ccc(-c2noc([C@H]3C[C@@H]3F)n2)cc1NC(=O)c1ccnc2cnccc12 [Example 8] the IC50 was > 1 µM. Cc1ccc(-c2noc([C@H]3C[C@@H]3F)n2)cc1NC(=O)c1cnn2c1CCCC2 [Example 9] was tested, and the IC50 was > 1 µM. Cc1ccc(-c2noc([C@H]3C[C@@H]3F)n2)cc1NC(=O)c1cnc2n1CCCC2 [Example 10] showed an IC50 of 0.1 to 1 µM. In the case of Cc1ccc(-c2noc([C@H]3C[C@@H]3F)n2)cc1NC(=O)c1cnn(C)c1C [Example 11], the IC50 is reported as > 1 µM. In the case of Cc1ccc(-c2noc([C@H]3C[C@@H]3F)n2)cc1NC(=O)c1ccnc2ncccc12 [Example 12], the IC50 is reported as > 1 µM. For Cc1ccc(-c2noc([C@H]3C[C@@H]3F)n2)cc1NC(=O)c1cncn1-c1ccccc1 [Example 17], the IC50 was > 1 µM. In the case of Cc1ccc(-c2noc([C@H]3C[C@@H]3F)n2)cc1NC(=O)c1cnn2ncccc12 [Example 18], the IC50 is reported as > 1 µM. For Cc1ccc(-c2noc([C@H]3C[C@@H]3F)n2)cc1NC(=O)c1csc2cncnc12 [Example 19], the IC50 was > 1 µM. For Cc1ccc(-c2noc([C@H]3C[C@@H]3F)n2)cc1NC(=O)c1nnc2ccccn12 [Example 20], the IC50 was > 1 µM. In the case of Cc1ccc(-c2noc([C@H]3C[C@@H]3F)n2)cc1NC(=O)c1nnn2ccccc12 [Example 21], the IC50 is reported as > 1 µM. In the case of Cc1ccc(-c2noc([C@H]3C[C@@H]3F)n2)cc1NC(=O)c1cn(-c2ccccc2)nn1 [Example 22], the IC50 is reported as > 1 µM. Cc1ccc(-c2noc([C@H]3C[C@@H]3F)n2)cc1NC(=O)c1cnc(-c2ccccc2F)s1 [Example 24] gave an IC50 of 0.1 to 1 µM. In the case of Cc1ccc(-c2noc([C@H]3C[C@@H]3F)n2)cc1NC(=O)c1cnc2ncccn12 [Example 25], the IC50 is reported as > 1 µM. With Cc1ccc(-c2noc([C@H]3C[C@@H]3F)n2)cc1NC(=O)c1ccnc2ccnn12 [Example 26] the IC50 was > 1 µM. Cc1ccc(-c2noc([C@H]3C[C@@H]3F)n2)cc1NC(=O)c1cnc2ncccc2c1 [Example 28] was tested, and the IC50 was > 1 µM. For Cc1ccc(-c2noc([C@H]3C[C@@H]3F)n2)cc1NC(=O)c1cnc2sccc2c1 [Example 29], the IC50 was > 1 µM. With Cc1ccc(-c2noc([C@H]3C[C@@H]3F)n2)cc1NC(=O)c1cnc2[nH]ncc2c1 [Example 31] the IC50 was > 1 µM. For Cc1ccc(-c2noc([C@H]3C[C@@H]3F)n2)cc1NC(=O)c1cnc2c(cnn2C(=O)C(C)C)c1 [Example 32], the IC50 was > 1 µM. Cc1ccc(-c2noc([C@H]3C[C@@H]3F)n2)cc1NC(=O)c1cnc2[nH]ccc2c1 [Example 33] was tested, and the IC50 was > 1 µM. Cc1ccc(-c2noc([C@H]3C[C@@H]3F)n2)cc1NC(=O)c1cnc2cccn2c1 [Example 45] was tested, and the IC50 was > 1 µM. In the case of Cc1ccc(-c2noc([C@H]3C[C@@H]3F)n2)cc1NC(=O)c1cnc2nccn2c1 [Example 46], the IC50 is reported as > 1 µM. For Cc1ccc(-c2noc([C@H]3C[C@@H]3F)n2)cc1NC(=O)c1cnc2ccnn2c1 [Example 47], the IC50 was > 1 µM. With Cc1ccc(-c2noc([C@H]3C[C@@H]3F)n2)cc1NC(=O)c1cnc2cn[nH]c2c1 [Example 48] the IC50 was > 1 µM. For Cc1ccc(-c2noc([C@H]3C[C@@H]3F)n2)cc1NC(=O)c1cnc2cnn(C(=O)C(C)C)c2c1 [Example 49], the IC50 was > 1 µM. For Cc1ccc(-c2noc([C@H]3C[C@@H]3F)n2)cc1NC(=O)c1cnc2ncsc2c1 [Example 50], the IC50 was > 1 µM. In the case of Cc1ccc(-c2noc([C@H]3C[C@@H]3F)n2)cc1NC(=O)c1cnn(-c2ccc(Cl)cc2)c1 [Example 51], the IC50 is reported as > 1 µM. With Cc1ccc(-c2noc([C@H]3C[C@@H]3F)n2)cc1NC(=O)c1cn(-c2ccccc2)nc1C [Example 53] the IC50 was > 1 µM. For Cc1ccc(-c2noc([C@H]3C[C@@H]3F)n2)cc1NC(=O)c1cnc2cnccc2c1 [Example 63], the IC50 was > 1 µM. Cc1ccc(-c2noc([C@H]3C[C@@H]3F)n2)cc1NC(=O)c1cnc2ccncc2c1 [Example 64] was tested, and the IC50 was > 1 µM. With Cc1ccc(-c2noc([C@H]3C[C@@H]3F)n2)cc1NC(=O)c1cnc2ccccc2n1 [Example 65] the IC50 was > 1 µM. In the case of Cc1ccc(-c2noc([C@H]3C[C@@H]3F)n2)cc1NC(=O)c1cnc2[nH]cnc2c1 [Example 66], the IC50 is reported as > 1 µM. With Cc1ccc(-c2noc([C@H]3C[C@@H]3F)n2)cc1NC(=O)c1cnc2c(c1)ncn2C(=O)C(C)C [Example 67] the IC50 was > 1 µM. With Cc1ccc(-c2noc([C@H]3C[C@@H]3F)n2)cc1NC(=O)c1cn2ccsc2n1 [Example 68] the IC50 was > 1 µM. Cc1ccc(-c2noc([C@H]3C[C@@H]3F)n2)cc1NC(=O)c1cnn(-c2ccccn2)c1 [Example 75] showed an IC50 of 0.1 to 1 µM. Cc1ccc(-c2noc([C@H]3C[C@@H]3F)n2)cc1NC(=O)c1cnn(-c2ccccc2Cl)c1 [Example 76] was tested, and the IC50 was > 1 µM. In the case of Cc1ccc(-c2noc([C@H]3C[C@@H]3F)n2)cc1NC(=O)c1cnc(-c2ccccc2)[nH]1 [Example 77], the IC50 is reported as > 1 µM. In the case of COc1ccccc1-c1ncc(C(=O)Nc2cc(-c3noc([C@H]4C[C@@H]4F)n3)ccc2C)[nH]1 [Example 78], the IC50 is reported as > 1 µM. For Cc1ccc(-c2noc([C@H]3C[C@@H]3F)n2)cc1NC(=O)c1cn[nH]c1-c1ccccc1 [Example 79], the IC50 was 0.1 to 1 µM. COc1cccc(-n2cc(C(=O)Nc3cc(-c4noc([C@H]5C[C@@H]5F)n4)ccc3C)cn2)c1 [Example 80] was tested, and the IC50 was 0.1 to 1 µM. For Cc1ccc(-c2noc([C@H]3C[C@@H]3F)n2)cc1NC(=O)c1cnn(-c2cccc(Cl)c2)c1 [Example 81], the IC50 was > 1 µM. With Cc1ccc(-c2noc([C@H]3C[C@@H]3F)n2)cc1NC(=O)c1cnn(-c2cccc(Br)c2)c1 [Example 82] the IC50 was > 1 µM. In the case of Cc1ccc(-c2noc([C@H]3C[C@@H]3F)n2)cc1NC(=O)c1cnn(-c2ccccc2)n1 [Example 83], the IC50 is reported as > 1 µM. Cc1ccc(-c2noc([C@H]3C[C@@H]3F)n2)cc1NC(=O)c1cnc(-c2ccccc2)s1 [Example 84] gave an IC50 of 0.1 to 1 µM. Cc1ccc(-c2noc([C@H]3C[C@@H]3F)n2)cc1NC(=O)n1c(=O)[nH]c2ccccc21 [Example 86] was tested, and the IC50 was > 1 µM. In the case of Cc1ccc(-c2noc([C@H]3C[C@@H]3F)n2)cc1NC(=O)c1cnn(-c2cccc(NC(=O)OC(C)(C)C)c2)c1 [Example 87], the IC50 is reported as > 1 µM. For Cc1ccc(-c2noc([C@H]3C[C@@H]3F)n2)cc1NC(=O)c1cnn2c1ccc1ccccc12 [Example 88], the IC50 was 0.1 to 1 µM. With Cc1ccc(-c2noc([C@H]3C[C@@H]3F)n2)cc1NC(=O)c1cnn2ccc(C(=O)N3CCCCC3)cc12 [Example 89] the IC50 was > 1 µM. Cc1ccc(-c2noc([C@H]3C[C@@H]3F)n2)cc1NC(=O)c1cnn2ccc(C(=O)NC3CCCCC3)cc12 [Example 91] was tested, and the IC50 was 0.1 to 1 µM. In the case of Cc1ccc(-c2noc([C@H]3C[C@@H]3F)n2)cc1NC(=O)c1cnc2n1CCOc1ccccc1-2 [Example 101], the IC50 is reported as 0.1 to 1 µM. For C#Cc1ccc2c(C(=O)Nc3cc(-c4noc([C@H]5C[C@@H]5F)n4)ccc3C)cnn2c1 [Example 106], the IC50 was < 0.1 µM. For Cc1ccc(-c2noc([C@H]3C[C@@H]3F)n2)cc1NC(=O)c1cnn2cc(-c3cn(C(F)F)nn3)ccc12 [Example 107], the IC50 was < 0.1 µM. In the case of Cc1ccc(-c2noc([C@H]3C[C@@H]3F)n2)cc1NC(=O)c1cnn2cc(-c3cnn(C(F)F)c3)ccc12 [Example 133], the IC50 is reported as < 0.1 µM. For Cc1ccc(-c2noc([C@H]3C[C@@H]3F)n2)cc1NC(=O)c1cnn2cc(-c3ccn(C(F)F)n3)ccc12 [Example 134], the IC50 was < 0.1 µM. With Cc1ccc(-c2noc([C@H]3C[C@@H]3F)n2)cc1NC(=O)c1cnn2cc(-c3cnn(C4COC4)c3)ccc12 [Example 137] the IC50 was < 0.1 µM. Cc1ccc(-c2noc([C@H]3C[C@@H]3F)n2)cc1NC(=O)c1cnn2cc(-c3cnn(CCO)c3)ccc12 [Example 139] was tested, and the IC50 was < 0.1 µM. With Cc1ccc(-c2noc([C@H]3C[C@@H]3F)n2)cc1NC(=O)c1cnn2cc(-c3cnn(C(C)(C)CO)c3)ccc12 [Example 141] the IC50 was < 0.1 µM. In the case of Cc1ccc(-c2noc([C@H]3C[C@@H]3F)n2)cc1NC(=O)c1cnn2cc(-c3cnn(CC(C)(C)O)c3)ccc12 [Example 143], the IC50 is reported as < 0.1 µM. Cc1ccc(-c2noc([C@H]3C[C@@H]3F)n2)cc1NC(=O)c1cnn2cc(Cl)c(N3CC4(COC4)C3)cc12 [Example 229] was tested, and the IC50 was 0.1 to 1 µM. In the case of Cc1ccc(-c2noc([C@H]3C[C@@H](OC(F)F)C3)n2)cc1NC(=O)c1cnn2ccc(N3CC4(COC4)C3)cc12 [Example 242], the IC50 is reported as < 0.1 µM. For Cc1ccc(-c2noc([C@H]3C[C@@H]3F)n2)cc1NC(=O)c1cnc(-c2ccc3c(cnn3CC(C)(C)O)c2)o1 [Example 308-65], the IC50 was < 0.1 µM. For Cc1ccc(-c2noc([C@H]3C[C@@H]3F)n2)cc1NC(=O)c1cnc(-c2ccc3nn(CC(C)(C)O)cc3c2)o1 [Example 308-66], the IC50 was < 0.1 µM. Work on Cc1ncc(-c2nnn(C3CN(C(=O)C4CC4)C3)n2)cc1NC(=O)c1cnn2ccc(N3CC4(C3)CC(O)(C(F)F)C4)cc12 [Example 312-10] yielded an IC50 of 0.1 to 1 µM. In the case of O=C(Nc1cn(-c2ccc(C3CC3)cc2)nc1C(F)F)c1cnn2ccc(N3CC4(COC4)C3)cc12 [compound 373], the IC50 is reported as > 1 µM.
